According to patent publication US7108996B2, “Method for increasing luminescence assay sensitivity” (Promega Corporation, priority 2000, dated 2006):
Like-named read-outs stand apart in the source and are kept apart here.

Assays:
[1] = system: Human embryonic kidney cells (293) stably expressing firefly luciferase (Luc+); test: Whole cell assay: firefly luminescence as indicator of cell viability; format: cell-based
Experimental: (§1) To determine the effect of organic compounds on cell viability and to determine the ability of such compounds to reduce autoluminescence in the presence of living cells, the following experiment was performed. Human embryonic kidney cells (293, ATCC, Rockville, Md.) were used to generate a cell line that stably expresses the firefly luciferase (Luc+) gene. This stable cell line was made using the pCl-neo vector (Promega Corporation, Madison Wis., USA) and inserting the Luc+ gene between the Xba I and Sal I sites. The stable cell line was prepared using standard methods and the transformed cells were grown in wells of a microtiter plate in the presence of DMEM medium containing 10% FBS and 0.15 mg/ml G418. For experimental purposes, duplicate plates of cells were prepared using 96 well microtiter plates. One plate was used to examine viability, and the other plate was used to examine the effect on autoluminescence.
To examine the effect of the organic compounds in cell viability, the media was removed from the cells and replaced with media containing the substrate for firefly luciferase, beetle luciferin, and the organic compounds at various concentrations. Passive diffusion of luciferin across the cell membrane together with the ATP oxygen and luciferase enzyme already contained within the cell, results in light production. Whereas, in compromised or damaged cells, intracellular ATP concentration is rapidly depleted, decreasing the firefly luminescence. The level of luminescence was compared to controls containing only luciferin to identify the effect of the compounds, if any, on light output as an indicator of cell viability.
(§2) Half of the microtiter plate contained no cells. To these wells, the same reagents were added as to the cell counterpart to measure cell-independent luminescence (i.e. background luminescence). The reagents (media with luciferin or coelenterazine, with or without compounds at various concentrations) were prepared as follows:
a) Reagent to Examine Firefly Luminescence (Cell Viability)
Luciferin substrate available from Promega Corporation, Madison Wis., USA was initially prepared in 10 mM sodium phosphate buffer, pH 7.4 as a 100 mM stock. This luciferin stock was used to make DMEM solution containing a final concentration of 2 mM luciferin.
Thiourea and 1-allyl-3-(2-hydroxyethyl)-2-thiourea were dissolved directly in this solution (DMEM/luciferin) to a final concentration of 30 mM. These were subsequently diluted to contain final compound concentrations of 10 mM and 1 mM.
Another compound 6-aza-thio-thymidine was dissolved in DMSO as a 750 mM stock. The 6-aza-thio-thymidine was subsequently added to the DMEM/luciferin reagent at a final concentration of 30 mM, 10 mM, and 1 mM, while maintaining a final DMSO concentration of 4%. A DMEM/luciferin reagent was used as the control with which to compare the effect of the compound and was also made to contain a final DMSO concentration of 4%.
Since it is believed that DMSO may help organic molecules permeat cell membranes, an additional control was included that consisted of thiourea (10 mM) reconstituted in DMSO (4%).
(§3) The cell culture medium was removed from the cells and replaced with medium containing substrate (+/−compound) and luminescence was measured immediately. […] Fold reduction in autoluminescence was calculated by dividing the background-subtracted autoluminescence in minus compound controls by the background-subtracted autoluminescence containing the compounds.

[2] = system: coelenterazine autoluminescence in Human embryonic kidney cells (293); test: Whole cell assay: reduction of coelenterazine autoluminescence in the presence of living cells; format: cell-based
Experimental: as §1
To determine the ability of the organic compounds to reduce autoluminescence, the media was removed from the cells and replaced with media containing the compounds at various concentrations and coelenterazine. Since there is no Renilla luciferase enzyme being expressed in these cells, the only luminescence observed is autoluminescence. The level of autoluminescence was compared to controls containing only coelenterazine to identify the effect of the compounds on reducing autoluminescence.
as §2
b) Reagent to Examine Reduction in Autoluminescence
Coelenterazine substrate was initially dissolved in Stop & Glob Reagent Solvent (both available from Promega Corporation, Madison Wis., USA) as a 30 mM stock. This coelenterazine stock was used to make DMEM media containing 0.6 mM coelenterazine as the final concentration. DMEM/coelenterazine reagents were made in a similar fashion as the DMEM/luciferin reagents described in a).
as §3

Renilla luciferase [3] = biological target: T1, Renilla luciferase (Renilla reniformis, UniProt P27652); conditions: Format A
Experimental: (§4) The enzymatic luminescence measurement may have an autoluminescence component.
(§5) Format A Assays were performed in the presence of Steady Glo® reagent (SG) and Stop & Glo® reagent (S+G), (Promega Corporation, Madison Wis.). A total reaction volume of 150 μl consisted of:
(§6) 50 μl F-12 (Ham) media+1 mg/ml gelatin (with or without enzyme^1)
(§7) 50 μl S+G (containing substrate^2)
(§8) 50 μl SG ^1 Renilla luciferase enzyme was added to F-12 cell culture media containing 1% gelatin, to a concentration of approximately 2.5 ng/50 μl media. Reactions in the absence of Renilla luciferase reveal the effect of the compound on autoluminescence while reactions in the presence of enzyme reveal the effect of the compound on Renilla luciferase-catalyzed luminescence.^2 The S+G reagent was prepared as per manufacturer's instructions, with the exception that for these experiments a S+G solvent three times more concentrated than normal was used to resuspend the S+G substrate.
(§9) The compound to be tested was re-suspended in either SG or S+G reagent to a final concentration of SG or S+G of (1×). The compound was added so the final concentration in the 150 μl total volume would be that listed in Table 1 and the reagent was diluted to the a final of 50 μl with water. For controls, the SG or S+G reagent was brought up to 50 μl with water or with the solvent used to dissolve the compound of interest. For example, if a compound needed to be dissolved in DMSO (dimethyl sulphoxide), an equal volume of DMSO was added to the control reaction. Unless otherwise indicated, the compounds were first dissolved in water.
(§10) For each concentration of a particular compound, a mixture containing all of the components in sufficient amounts for four reactions (i.e. 200 μl media, 200 μl SG, 200 μl S+G) was assembled. From this mixture, 150 μl was dispensed into triplicate wells on a 96-well plate. Alternatively, reactions were sometimes assembled in each well of the plate by adding each of the 50 μl portions and mixing. The plate was incubated at 22° C. and after 5 minutes the luminescence was measured using a Dynex plate luminometer (1 second measurement per well).
(§11) b) effect of the compound on enzymatic luminescence measurement in the presence of the compound when compared to control samples lacking only the compound.

Renilla luciferase [4] = biological target: T1, Renilla luciferase
Experimental: as §4
(§12) Format B Experiments were performed in a reaction volume of 150 μl Matthew's Buffer (referred to herein as MB) as either a standard MB composition or a modified MB composition as described below. As with Format A, reactions with and without Renilla luciferase were carried out to observe the effect of the organic compounds on assay sensitivity.
(§13) 1× Matthew's buffer standard composition consists of:
(§14) In order to observe the autoluminescence enhanced only by the detergent, for the majority of the experiments, BSA was replaced with porcine gelatin as the enzyme stabilizer at a final concentration of 0.15 mg/ml or 0.45 mg/ml. Taking all the variants into account the format can be sub-divided in 4 different versions:
(§15) Reactions were carried out in triplicate by adding each of the 50 μl portions to microtiter plate wells and mixing. The resulting relative light units generated per well was measured immediately using a Dynex MLX Microtiter plate luminometer or a Wallac 1450 MicroBeta Trilux plate luminometer (1 second/well) or alternatively, the plate was incubated at 22° C. and read after 5 minutes in the same fashion.
as §11

[5] = Experimental: as §4, §12, §13, §14, §15
(§16) a) fold-decrease in non-enzymatic autoluminescence measurement in the presence of the compound when compared to the absence of the compound and, […]

[6] = remark: listed apart in the source
Experimental: as §4, §5, §6, §7, §8, §9, §10, §16

[7] = 1 mM compound, no additives to media
[8] = 10 mM compound, no additives to media
[9] = 30 mM compound, no additives to media
[10] = 1 mM compound, 4% DMSO in media
[11] = 10 mM compound, 4% DMSO in media
[12] = 30 mM compound, 4% DMSO in media
[13] = 3 mM compound, Format B3 (gelatin, detergent)
[14] = 3 mM compound, Format B3 with Tween-20
[15] = 3 mM compound, Format B4 + 10 mM sodium hydrosulfate
[16] = 100 mM compound, Format B3 (gelatin, detergent)
[17] = 10 mM compound, Format B4 (gelatin, no detergent)
[18] = 100 mM compound, Format B4 (gelatin, no detergent)
[19] = 10 mM compound, Format B3 (gelatin, detergent)
[20] = 30 mM compound, Format B3 (gelatin, detergent)
[21] = 30 mM compound, Format B4 (gelatin, no detergent)

T1 sequence (P27652 whole entry): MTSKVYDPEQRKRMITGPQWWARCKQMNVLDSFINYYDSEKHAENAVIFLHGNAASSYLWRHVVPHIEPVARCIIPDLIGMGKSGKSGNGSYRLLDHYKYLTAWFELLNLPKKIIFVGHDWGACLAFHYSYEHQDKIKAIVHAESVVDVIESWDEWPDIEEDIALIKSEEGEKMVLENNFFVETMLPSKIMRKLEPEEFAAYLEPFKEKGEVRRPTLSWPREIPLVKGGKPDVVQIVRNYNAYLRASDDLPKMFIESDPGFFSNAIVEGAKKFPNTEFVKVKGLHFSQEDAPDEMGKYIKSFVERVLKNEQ

C=CCNC(=S)NCCO [1-Allyl-3-(2-hydroxyethyl)-2-thiourea, 1-allyl-3-(2-hydroxyethyl)-2-thiourea]
Effects on firefly luminescence [1, 7]: No | Effects on firefly luminescence [1, 8]: Yes, decreases | Effects on firefly luminescence [1, 9]: Yes, decreases | Fold Decrease in Autoluminescence [2, 7]: 3.5 fold | Fold Decrease in Autoluminescence [2, 8]: 12 fold | Fold Decrease in Autoluminescence [2, 9]: 35 fold

Cc1nn([C@H]2C[C@H](O)[C@@H](CO)O2)c(=S)[nH]c1=O [6-aza-thio-thymidine]
Effects on firefly luminescence [1, 10]: No | Effects on firefly luminescence [1, 11]: No | Effects on firefly luminescence [1, 12]: Yes, decreases | Fold Decrease in Autoluminescence [2, 10]: 3 fold | Fold Decrease in Autoluminescence [2, 11]: 23 fold | Fold Decrease in Autoluminescence [2, 12]: 525 fold

NC(N)=S [Compound 1]
Effect on luminescence (Renilla luciferase [3]; 33 mM compound): No effect | Effect on luminescence (Renilla luciferase [4]; [13]): No effect | Effect on luminescence (Renilla luciferase [4]; [14]): No effect | Effect on luminescence (Renilla luciferase [4]; [15]): No effect | Effect on luminescence (Renilla luciferase [4]; [16]): No effect | Fold decrease autoluminescence [5, 13]: 120 fold | Fold decrease autoluminescence ([5]; 3 mM compound, Format B3 + 10 mM sodium hydrosulfate): 21.6 fold | Fold decrease autoluminescence [5, 14]: 100 fold | Fold decrease autoluminescence ([5]; 3 mM compound, Format B3 with Zwittergent): 6 fold | Fold decrease autoluminescence [5, 15]: 2.6 fold | Fold decrease autoluminescence [5, 17]: 2 fold | Fold decrease autoluminescence ([5]; 50 mM compound, Format B3 + 17% DMSO): 500 fold | Fold decrease autoluminescence ([5]; 50 mM compound, Format B4 + 17% DMSO): 15 fold | Fold decrease autoluminescence [5, 16]: 290 fold | Fold decrease autoluminescence [5, 18]: 8.5 fold | Fold decrease autoluminescence ([5]; 316 mM compound, Format B2 (BSA, no detergent)): 2 fold | Fold decrease autoluminescence ([6]; 33 mM compound, Format A): 15 fold

NC(N)=[Se] [Compound 2]
Effect on luminescence (Renilla luciferase [3]; 10 mM compound): No effect | Effect on luminescence (Renilla luciferase [4]; [19]): No effect | Fold decrease autoluminescence [5, 19]: 70 fold | Fold decrease autoluminescence ([6]; 10 mM compound, Format A): 100 fold

CC(N)=S [Compound 3]
Fold decrease autoluminescence ([5]; 33 mM compound, Format B3 (gelatin, detergent)): 545 fold | Fold decrease autoluminescence ([5]; 33 mM compound, Format B4 (gelatin, no detergent)): 3.4 fold | Fold decrease autoluminescence ([6]; 33 mM compound, Format A): 100 fold

C=CCNC(=S)NCCO [Compound 4]
Effect on luminescence (Renilla luciferase [3]; 10 mM compound): No effect | Fold decrease autoluminescence [5, 20]: 500 fold | Fold decrease autoluminescence [5, 21]: 3.9 fold | Fold decrease autoluminescence ([6]; 10 mM compound, Format A): 3 fold

S=C(Nc1ccccc1)Nc1cscn1 [Compound 5]
Fold decrease autoluminescence ([6]; 10 mM compound, Format A): 115 fold

Cc1c[nH]c(=S)[nH]c1=O [Compound 6]
Fold decrease autoluminescence ([5]; 32 mM compound, Format B3 + 33% DMSO): 660 fold | Fold decrease autoluminescence ([5]; 32 mM compound, Format B4 + 33% DMSO): 120 fold | Fold decrease autoluminescence ([6]; 32 mM compound, Format A + 17% DMSO): 65 fold

CON=C(C(=O)O)c1csc(N)n1 [Compound 7]
Fold decrease autoluminescence [5, 20]: 7 fold | Fold decrease autoluminescence [5, 21]: 6.2 fold

NCCS [Compound 8]
Effect on luminescence (Renilla luciferase [3]; 100 mM compound): No effect | Effect on luminescence (Renilla luciferase [4]; [20]): No effect | Fold decrease autoluminescence [5, 20]: 20 fold | Fold decrease autoluminescence [5, 21]: 3.5 fold | Fold decrease autoluminescence ([6]; 100 mM compound, Format A): 6 fold

OC(CS)CC(O)CS (stereo not shown) [Compound 9]
Effect on luminescence (Renilla luciferase [4]; [21]): No effect | Fold decrease autoluminescence [5, 20]: 13 fold | Fold decrease autoluminescence [5, 21]: 2.5 fold | Fold decrease autoluminescence [5, 18]: 3 fold

CC(=O)NC(CS)C(=O)O (stereo not shown) [Compound 11]
Effect on luminescence (Renilla luciferase [4]; [20]): No effect | Fold decrease autoluminescence [5, 20]: 2 fold | Fold decrease autoluminescence [5, 21]: 2.3 fold | Fold decrease autoluminescence [5, 18]: 3.7 fold

N#C[S-].[K+] [K SCN]
Effect on luminescence (Renilla luciferase [4]; [19]): No effect | Fold decrease autoluminescence [5, 19]: 55 fold | Fold decrease autoluminescence [5, 17]: 1.7 fold

NC(N)=S [thiourea]
Effects on firefly luminescence [1, 7]: No | Effects on firefly luminescence [1, 11]: No | Effects on firefly luminescence [1, 8]: No | Effects on firefly luminescence [1, 9]: Yes, decreases | Fold Decrease in Autoluminescence [2, 7]: 3.4 fold | Fold Decrease in Autoluminescence [2, 11]: 12 fold | Fold Decrease in Autoluminescence [2, 8]: 16 fold | Fold Decrease in Autoluminescence [2, 9]: 40 fold
